Data from paper PMC8322037 (International Journal of Biological Macromolecules, 2021).

Biological target: SARS-CoV-2 3CL^pro (Severe acute respiratory syndrome coronavirus 2, UniProt P0DTD1)
Assay: biochemical
Conditions: for Ratio (IC50 0.5 min / IC50 60 min): IC50 shift between 0.5 min and 60 min preincubation

Molecule | IC50 (IC50 0.5 (min)) [µM] | IC50 (IC50 60 (min)) [µM] | IC50 (IC50 (three different doses), assayed by using three different doses, Fig. 4) [µM] | Ratio (IC50 0.5 min / IC50 60 min)
O=C1c2c(O)cc(O)cc2OC(c2ccc(O)c(O)c2)C1O (centres unmarked) [Taxifolin] | > 200 | 72.7 | 10 to 100 | >2.75
Myricitrin |  |  |  | 8.32
